SMILES strings stand for the structures.

For the first experiment, the target named is T1, HGFR (His6-HGFR cytoplasmic domain) (Homo sapiens, UniProt P08581).
T1 construct: made in house; host or cells: Spodoptera frugiperda Sf9 insect cells (baculovirus, pFastBac-HT)
T1 sequence (P08581 956-1390 limits assumed): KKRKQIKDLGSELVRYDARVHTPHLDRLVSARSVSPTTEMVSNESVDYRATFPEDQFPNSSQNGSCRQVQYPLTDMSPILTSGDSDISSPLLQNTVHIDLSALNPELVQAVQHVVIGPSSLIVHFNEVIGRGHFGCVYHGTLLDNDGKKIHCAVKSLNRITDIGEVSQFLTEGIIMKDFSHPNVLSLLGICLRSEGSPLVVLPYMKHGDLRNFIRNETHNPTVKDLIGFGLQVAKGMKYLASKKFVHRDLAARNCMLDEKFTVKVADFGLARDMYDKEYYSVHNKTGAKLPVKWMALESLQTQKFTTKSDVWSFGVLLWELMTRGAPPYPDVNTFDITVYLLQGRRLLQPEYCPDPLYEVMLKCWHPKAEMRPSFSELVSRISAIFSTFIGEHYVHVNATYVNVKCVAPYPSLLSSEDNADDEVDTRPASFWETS
The experiment can be described thus: Inhibitory activity against HGFR tyrosine kinase activity (HTRF). As to conditions: biotin-poly(GT), ATP, 30° C. 10 min, read-out: IC50 (concentration necessary to inhibit HGFR kinase activity by 50%). It is filed as biochemical. Put shortly: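 Baculovirus/Sf9-expressed N-terminal His6-tagged HGFR cytoplasmic domain (from Lys974), Ni-NTA purified, phosphorylated biotin-poly(GT) in Hepes pH 7.4 with MgCl2/MnCl2. ATP added as 4 μM solution; 10 min at 30° C., stopped with EDTA. Phosphotyrosine product detected by HTRF.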
In general terms: TR-FRET usually uses a lanthanide donor and a delayed reading to cut background.
In the case of `O=C(Cc1ccc(F)cc1)NC(=S)Nc1ccc(Oc2cc(NC(=O)N3CCCC3)ncn2)c(F)c1` [Example 3, Pyrrolidine-1-carboxylic acid [6-(2-fluoro-4-{3-[2-(4-fluorophenyl)acetyl]thioureido}phenoxy)pyrimidin-4-yl]amide], the IC50 amounted to 0.071 µM.
Same read-out and setting: the value for `O=C(Cc1ccc(F)cc1)NC(=S)Nc1ccc(Oc2ccnc(NC(=O)N3CCCC3)c2)cc1` [Example 9, Pyrrolidine-1-carboxylic acid [4-(4-{3-[2-(4-fluorophenyl)acetyl]thioureido}phenoxy)pyridin-2-yl]amide] was 0.053 µM; that for `O=C(Cc1ccccc1)NC(=S)Nc1ccc(Oc2ccnc(NC(=O)N3CCOCC3)c2)c(Cl)c1` [Example 11, 4-{2-Chloro-4-[3-(2-phenylacetyl)thioureido]phenoxy}-2-[(morpholin-4-yl)carbonylamino]pyridine] was 0.088 µM; that for `O=C(Cc1ccc(F)cc1)NC(=S)Nc1ccc(Oc2ccnc(NC(=O)N3CCCC3)c2)c(F)c1` [Example 13, 4-(2-Fluoro-4-{3-[2-(4-fluorophenyl)acetyl]thioureido}phenoxy)-2-[(pyrrolidin-1-yl)carbonylamino]pyridine] was 0.11 µM.
The same measure, in the same setting: the value for `O=C(Cc1ccccc1)NC(=S)Nc1ccc(Oc2ccnc(NC(=O)N3CCC(O)CC3)c2)c(F)c1` [Example 15, 4-{2-Fluoro-4-[3-(2-phenylacetyl)thioureido]phenoxy}-2-[(4-hydroxypiperidin-1-yl)carbonylamino]pyridine] was below 0.03 µM; that for `CN(C)C(=O)Nc1cc(Oc2ccc(NC(=S)NC(=O)CC3CC4CCC3C4)cc2F)ccn1` (stereo not drawn) [Example 17, 2-[(Dimethylamino)carbonylamino]-4-{2-fluoro-4-[3-(2-norbornaneacetylthio)ureido]phenoxy}pyridine] was 0.064 µM.
For the compound `CCN(CC)CCCN(C)C(=O)Nc1cc(Oc2ccc(NC(=S)NC(=O)Cc3ccc(F)cc3)cc2F)ccn1` [Example 22, 1-(3-Diethylaminopropyl)-3-[4-(2-fluoro-4-{3-[2-(4-fluorophenyl)acetyl]thioureido}phenoxy)pyridin-2-yl]-1-methylurea], the IC50 came out at 0.11 µM.
Same read-out and setting: the value for `Cc1cc(NC(=S)NC(=O)Cc2ccc(F)cc2)ccc1Oc1ccnc(NC(=O)N2CCOCC2)c1` [Example 24, Morpholine-4-carboxylic acid (4-{2-methyl-4-[3-(4-fluorophenyl)acetylthioureido]phenoxy}pyridin-2-yl)amide] was 0.054 µM; that for `CN1CCC(N(C)C(=O)Nc2cc(Oc3ccc(NC(=S)NC(=O)Cc4ccccc4)cc3F)ccn2)CC1` [Example 28, 3-{4-[2-Fluoro-4-(3-phenylacetylthioureido)phenoxy]pyridin-2-yl}-1-methyl-1-(1-methylpiperidin-4-yl)urea] was 0.075 µM; that for `O=C(Cc1ccccc1)NC(=O)Nc1ccc(Oc2ccnc(NC(=O)N3CCCC3)c2)c(F)c1` [Example 43, 4-{2-Fluoro-4-[3-(2-phenylacetyl)ureido]phenoxy}-2-[(pyrrolidin-1-yl)carbonylamino]pyridine] was 0.083 µM.
The same measure, in the same setting: next, `CN(C)C(=O)Nc1cc(Oc2ccc(NC(=O)NC(=O)Cc3ccccc3)cc2F)ccn1` [Example 44, 2-[(Dimethylamino)carbonylamino]-4-{2-fluoro-4-[3-(2-phenylacetyl)ureido]phenoxy}pyridine]: 0.045 µM.
On the same count and under the same terms, next, `O=C(Cc1ccccc1)NC(=O)Nc1ccc(Oc2ccnc(NC(=O)N3CCC(N4CCCC4)CC3)c2)c(F)c1` [Example 45, 4-{2-Fluoro-4-[3-(2-phenylacetyl)ureido]phenoxy}-2-{[4-(pyrrolidin-1-yl)piperidin-1-yl]carbonylamino}pyridine]: 0.091 µM; `O=C(Cc1ccccc1)NC(=O)Nc1ccc(Oc2ccnc(NC(=O)N3CCOCC3)c2)c(F)c1` [Example 48, Morpholine-4-carboxylic acid {4-[2-fluoro-4-(3-phenylacetylureido)phenoxy]pyridin-2-yl}amide]: 0.056 µM.
As for `CN1CCN(C(=O)Nc2cc(Oc3ccc(NC(=O)NC(=O)Cc4ccccc4)cc3F)ccn2)CC1` [Example 50, 4-Methylpiperazine-1-carboxylic acid {4-[2-fluoro-4-(3-phenylacetylureido)phenoxy]pyridin-2-yl}amide], the IC50 is 0.19 µM.
Same read-out and setting: next, `CN1CCC(N(C)C(=O)Nc2cc(Oc3ccc(NC(=O)NC(=O)Cc4ccccc4)cc3F)ccn2)CC1` [Example 52, 3-{4-[2-Fluoro-4-(3-phenylacetylureido)phenoxy]pyridin-2-yl]-1-methyl-1-(1-methylpiperidin-4-yl)urea]: 0.073 µM; `O=C(CC(=O)Nc1ccc(Oc2ccnc(NC(=O)N3CCCC3)c2)c(F)c1)Nc1ccc(F)cc1` [Example 56, N-(4-Fluorophenyl)-N′-(3-fluoro-4-{2-[(pyrrolidine-1-carbonyl)amino]pyridin-4-yloxy}phenyl)malonamide]: 0.056 µM; `O=C(CC(=O)Nc1ccc(Oc2ccnc(NC(=O)C3CC3)c2)cc1F)Nc1ccc(F)cc1` [Example 77, N-(4-Fluorophenyl)-N′-{4-[2-(cyclopropanecarbonylamino)pyridin-4-yloxy]-2-fluorophenyl}malonamide]: 0.013 µM.
The same measure, in the same setting: next, `O=C(CC(=O)Nc1ccc(Oc2ccnc(NC(=O)N3CCC(N4CCCC4)CC3)c2)cc1F)Nc1ccc(F)cc1` [Example 82, N-(4-Fluorophenyl)-N′-[2-fluoro-4-(2-{[4-(pyrrolidin-1-yl)piperidine-1-carbonyl]amino}pyridin-4-yloxy)phenyl]malonamide]: 0.066 µM.
Same read-out and setting: next, `Cc1cc(Oc2ccnc(NC(=O)N3CCC(N4CCCC4)CC3)c2)ccc1NC(=O)CC(=O)Nc1ccc(F)cc1` [Example 85, N-(4-Fluorophenyl)-N′-[2-methyl-4-(2-{[(4-pyrrolidin-1-yl)piperidine-1-carbonyl]amino}pyridin-4-yloxy)phenyl]malonamide]: 0.096 µM.
On to `CN1CCC(N(C)C(=O)Nc2cc(Oc3ccc(NC(=O)CC(=O)Nc4ccc(F)cc4)cc3F)ccn2)CC1` [Example 89, N-(3-Fluoro-4-{2-[3-methyl-3-(1-methylpiperidin-4-yl)ureido]pyridin-4-yloxy}phenyl)-N′-(4-fluorophenyl)malonamide], for which the IC50 worked out at 0.038 µM.
On to `CN1CCCN(C(=O)Nc2cc(Oc3ccc(NC(=O)CC(=O)Nc4ccc(F)cc4)c(F)c3)ccn2)CC1` [Example 92, N-(2-Fluoro-4-{2-[(4-methyl-[1,4]diazepane-1-carbonyl)amino]pyridin-4-yloxy}phenyl)-N′-(4-fluorophenyl)malonamide], for which the IC50 stood at 0.078 µM.

The subject of a further experiment is Human pancreatic cancer cells (SUIT-2). Nature of the experiment: Inhibitory activity against migration of human pancreatic cancer cells (SUIT-2). In kind it is cell-based. As to conditions: SUIT-2, Transwell, HGF stimulation, 24 hrs, read-out: IC50 (concentration necessary to inhibit the cell migration activity by 50%). On the procedure: Human pancreatic cancer cells (SUIT-2) were suspended in a 1% FBS-containing RPMI1640 medium (purchased from Sigma) to prepare a cell suspension (8×10^5 cells/ml). To the lower compartment of Transwell (purchased from COSTAR, Production No. 3422) was added 600 μl of a 1% FBS-containing RPMI1640 medium. To the upper compartment were added 50 μl of the above cell suspension and 25 μl of the test substance dissolved in dimethyl sulfoxide (diluted with the 1% FBS-containing RPMI1640 medium), followed by culturing in a 5% CO2 incubator (37° C.) for 1 hr. After the culture, to the upper compartment of each Transwell was added 25 μl of human recombinant hepatocyte growth factor (HGF, purchased from Wako Pure Chemical Industry, Production No. 22949) diluted to 280 ng/ml with a 1% FBS-containing RPMI1640 medium, followed by culturing in a 5% CO2 incubator (37° C.) for 24 hrs. The cells adhering to the lower compartment of each well were counted in five fields by a phase contrast microscope (200×) to calculated an average adhering cell number. While defining the average adhering cell number of a well supplied with […] and no test substance as 100% cell migration activity and the average adhering cell number of a well supplied with no HGFR and no test substance as 0% cell migration activity, the cell migration activity percent (%) was calculated for each well. The concentration of the test substance was varied at several levels to calculate the cell migration activity percent (%) for respective cases, and to calculate the concentration of the test substance necessary to inhibit the cell migration activity by 50% (IC50).
In the case of `O=C(Cc1ccc(F)cc1)NC(=S)Nc1ccc(Oc2cc(NC(=O)N3CCCC3)ncn2)c(F)c1` [Example 3, Pyrrolidine-1-carboxylic acid [6-(2-fluoro-4-{3-[2-(4-fluorophenyl)acetyl]thioureido}phenoxy)pyrimidin-4-yl]amide], the IC50 is 0.05 µM.
On to `O=C(Cc1ccc(F)cc1)NC(=S)Nc1ccc(Oc2ccnc(NC(=O)N3CCCC3)c2)c(F)c1` [Example 13, 4-(2-Fluoro-4-{3-[2-(4-fluorophenyl)acetyl]thioureido}phenoxy)-2-[(pyrrolidin-1-yl)carbonylamino]pyridine], for which the IC50 stood at 0.0032 µM.
Same read-out and setting: next, `O=C(CC(=O)Nc1ccc(Oc2ccnc(NC(=O)N3CCCC3)c2)c(F)c1)Nc1ccc(F)cc1` [Example 56, N-(4-Fluorophenyl)-N′-(3-fluoro-4-{2-[(pyrrolidine-1-carbonyl)amino]pyridin-4-yloxy}phenyl)malonamide]: 0.038 µM.

The values above are taken from US20070270421A1, “Novel pyridine Derivative and Pyrimidine Derivative (1)” (priority 2004, published 2007).
